According to ChEMBL document CHEMBL5390254, “Discovery and Optimization of Novel hDHODH Inhibitors for the Treatment of Inflammatory Bowel Disease” (J Med Chem, 2023):
The source made the active and inactive calls. The rule behind the calls is not given here.

What was measured:
[1] = test system: Mus musculus; experiment: Anti-inflammatory activity against DSS-induced acute ulcerative colitis in C57BL/6 mouse model assessed as decrease in IL-1beta mRNA expression level in colon at 40 mg/kg, po QD for 6 days by RT-PCR analysis; type: functional, organism-based; conditions: time 6.0 day
[2] = test system: Mus musculus; experiment: Anti-inflammatory activity against DSS-induced acute ulcerative colitis in C57BL/6 mouse model assessed as increase in colon length at 80 mg/kg, po QD for 6 days (Rvb= 5.3cm); type: functional; conditions: time 6 day
[3] = test system: Mus musculus; experiment: Anti-inflammatory activity against DSS-induced acute ulcerative colitis in C57BL/6 mouse model assessed as decrease in IL-6 production in colon at 40 mg/kg, po QD for 6 days by ELISA; type: functional; conditions: time 6.0 day
[4] = test system: Mus musculus; experiment: Anti-inflammatory activity against DSS-induced acute ulcerative colitis in C57BL/6 mouse model assessed as decrease in IL-17 mRNA expression level in colon at 40 mg/kg, po QD for 6 days by RT-PCR analysis; type: functional, organism-based; conditions: time 6.0 day
[5] = test system: Mus musculus; experiment: Anti-inflammatory activity against DSS-induced acute ulcerative colitis in C57BL/6 mouse model assessed as decrease in IL-6 mRNA expression level in colon at 40 mg/kg, po QD for 6 days by RT-PCR analysis; type: functional, organism-based; conditions: time 6.0 day
[6] = test system: Mus musculus; experiment: Anti-inflammatory activity against DSS-induced acute ulcerative colitis in C57BL/6 mouse model assessed as decrease in body weight loss at 80 mg/kg, po QD for 6 days (Rvb= -13.4%); type: functional; parameters: scale not given: the % may be the effect or the level left; conditions: time 6 day
[7] = test system: Mus musculus; experiment: Anti-inflammatory activity against DSS-induced acute ulcerative colitis in C57BL/6 mouse model assessed as decrease in colon tissue damage score at 40 mg/kg, po QD for 6 days relative to DSS group; type: functional; parameters: scale not given: the % may be the effect or the level left; conditions: time 6 day
[8] = test system: Mus musculus; experiment: Anti-inflammatory activity against DSS-induced acute ulcerative colitis in C57BL/6 mouse model assessed as decrease in IL-17 production in colon at 40 mg/kg, po QD for 6 days by ELISA; type: functional; conditions: time 6.0 day
[9] = test system: Mus musculus; experiment: Anti-inflammatory activity against DSS-induced acute ulcerative colitis in C57BL/6 mouse model assessed as decrease in colon length shortening at 40 mg/kg, po QD for 6 days (Rvb= 5.5cm); type: functional; conditions: time 6 day
[10] = test system: Mus musculus; experiment: Anti-inflammatory activity against DSS-induced acute ulcerative colitis in C57BL/6 mouse model assessed as decrease in IL-1beta production in colon at 40 mg/kg, po QD for 6 days by ELISA; type: functional; conditions: time 6.0 day

SMILES: C[C@@H]1CCN(C(=O)CC#N)C[C@@H]1N(C)c1ncnc2[nH]ccc12 [TOFACITINIB]
- Activity [1]: Active
- Activity [2]: 6.7 cm
- Activity [3]: Active
- Activity [4]: Active
- Activity [5]: Active
- Activity [6]: -3.9%
- Activity [7]: 45.45%
- Activity [8]: Active
- Activity [9]: 6.3 cm
- Activity [10]: Active
